Assay results published in US20070280975A1, “Method for Producing Maca Extract” (Suntory Limited, priority 2004, published 2007).

Test system: mast cells
Experiment: Suppressive effect on the isolation of histamine from mast cells (compound 48/80 induced)
Assay type: cell-based, Wister rats
Details: DSCG 0.1 mg/mL; same line of test procedures
Protocol: The anti-allergic effects of the Maca extract of the present invention can be evaluated by the suppressive effect on the isolation of histamine from mast cells. The Suppressive Effect on the Isolation of Histamine from Mast Cells The test was conducted according to the method of Yuko HIRAI, et al. (Natural Medicines: Vol. 37, p374-380, 1983). That is, Tyrode was interperitoneally injected to Wister rats bled to death and peritoneal cavity cells were taken. Therefrom, mast cells were isolated by the multilevel centrifugal method using Bovine Serum Albumin (BSA)/physiological saline (relative gravity: 1.068). […] The resultant was then ice cooled and amount of histamine in the supernatant after centrifugation (150 g×5 minutes) was measured by high performance liquid chromatography with fluorescence detector attachment. […] The solution obtained was each measured to 0.25 mg/mL, and the above explained suppressive effect on the isolation of histamine from mast cell was evaluated. On the other hand, the above explained suppressive effect on the isolation of histamine from mast cell was evaluated for control solutions 1 to 3 which were obtained in the same procedures as for the solutions of the present invention except for extraction condition such as extraction temperature and ethanol concentration.

## O=C(O)c1cc(=O)c2c(OCC(O)COc3cccc4oc(C(=O)O)cc(=O)c34)cccc2o1 [DSCG, sodium cromoglycate]
  suppressive effect on isolation of histamine: 50%
